Patent US20260217683A1, “PYRIDAZINONE HETEROCYCLIC COMPOUND MYOSIN II INHIBITOR AND USE THEREOF” (Xizang Haisco Pharmaceutical Co., Ltd., priority 2023, published 2026)
Where two headings read alike, the source gives them in different places.

Legend:
[1] = test system: rabbit skeletal muscle myosin; assay: Inhibition of hydrolysis of ATP by rabbit skeletal muscle myosin; assay type: biochemical
Protocol: The purpose of this test was to evaluate the ability of compounds to inhibit the hydrolysis of ATP by rabbit skeletal muscle myosin. The determination method was as follows:
• Preformed F-actin filaments (#AKF99-B, Cytoskeleton) were diluted to 1 mg/mL with Reaction buffer (25 mM Tris-HCL, pH 7.5+35 mM KCl+0.1 mM EGTA+1 mM MgCl2); • Rabbit myosin (#MYO2-A, Cytoskeleton) was diluted to 0.1 mg/mL with Resuspension buffer (15 mM Tris-HCL, PH7.5+0.2 M KCl+1 mM MgCl2); • ATP (#BSA04-001, Cytoskeleton) was diluted to 3 mM working solution with 15 mM Tris-HCL (PH=7.5);
• adding 13 μL reaction buffer+12 μL F-actin to actin control wells; • adding 10 μL reaction buffer+12 μL F-actin+3 μL myosin II to positive control wells; • adding 10 μL of compound working solution+12 μL of F-actin+3 μL of myosin II to the compound wells; • adding 5 μL of ATP working solution to all test wells to start the reaction, and simultaneously adding a sample to the Pi standard wells according to the instruction (#BK054, Cytoskeleton); • gently mixing and accurately incubating at 37° C. for 60 min; • adding 70 μL of CytoPhos Reagent (#BK054, Cytoskeleton) to each well and incubating for 10 min to stop the reaction.
• the OD value of each well was detected at 650 nm using the endpoint method. The standard curve was fitted according to Pi concentration and OD value, and the Pi concentration of each test well was obtained. Inhibition (%)=(Pi positive control well-Pi test well)/Pi positive control well*100%. The Inhibition %-[…] curve was fitted with Graphpad Prism 8 software, and IC50 was calculated.

cardiac myosin SII = biological target: T1, cardiac myosin SII (Bos taurus, UniProt Q9BE39); assay: Inhibition of hydrolysis of ATP by cardiac myosin SII; assay type: biochemical; conditions: 100 μM compound
T1 construct: purchased Cytoskeleton #MYO3-A
Protocol: The purpose of this test was to evaluate the ability of compounds to inhibit the hydrolysis of ATP by cardiac myosin SII. The determination method was as follows: • 1. Solution formulation: • Preformed F-actin filaments (#AKF99-B, Cytoskeleton) were diluted to 1 mg/mL with Reaction buffer (15 mM Tris-HCL. PH7.5+10 mM KCl+0.1 mM EGTA+2 mM MgCl2); • Cardiac Muscle myosin (#MYO3-A, Cytoskeleton) was diluted to 1 mg/mL with Resuspension buffer (15 mM Tris-HCL, PH7.5+0.2M KCl+1 mM MgCl2); • ATP (#BSA04-001, Cytoskeleton) was diluted to 3 mM working solution with 15 mM Tris-HCL (PH=7.5); • 2. Formulation of working solution of compounds: the final compound concentration was 100 μM • 3. Experimental steps: • adding 10 μL of compound working solution+12 μL of Preformed F-actin filaments+3 μL of Cardiac Muscle myosin to the compound wells; • adding 10 μL of reaction buffer containing DMSO+12 μL Preformed F-actin filaments +3 μL Cardiac Muscle myosin to positive control wells; • adding 10 μL of reaction buffer containing DMSO+12 μL Preformed F-actin filaments +3 μL Resuspension buffer to negative control wells; • adding 5 μL of 3 mM ATP working solution to all test wells to start the reaction, gently mixing and incubating at 37° C. for 2 h; • after the reaction was completed, taking 6 μL of reaction liquid, adding 24 μL of reaction buffer for 5-fold dilution, then detecting the content of the product Pi with a phosphate kit (#BK054, Cytoskeleton); • adding a sample to Pi standard wells according to the instructions; • adding 70 μL of CytoPhos Reagent (#BK054, Cytoskeleton) to each well and incubating at room temperature for 10 min before detection. • 4. Detection: • the OD value of each well was detected at 650 nm. The standard curve was fitted according to Pi standard concentration and OD value, and the Pi concentration of each test well was obtained. Inhibition (%)=(positive control well−test well)/positive control well*100%.

smooth muscle myosin S1 = biological target: T2, smooth muscle myosin S1 (Gallus gallus, UniProt P10587); assay: Inhibition of hydrolysis of ATP by smooth muscle myosin S1 fragments; assay type: biochemical; conditions: 100 μM compound
T2 construct: purchased Cytoskeleton #CS-MYS05
Protocol: The purpose of this test was to evaluate the ability of compounds to inhibit the hydrolysis of ATP by smooth muscle myosin Si fragments. The determination method was as follows: • 1. Solution formulation • F-actin polymer: Cardiac Actin powder (#CS-AD99, Cytoskeleton) was dissolved in a buffer (5 mM Pipes-KOH solution, PH=7.0, containing 100 μM ATP and 500 μM DTT) to form a 2 mg/mL solution and the solution was left at room temperature for 30 min; then 2 mM MgCl2 and 2 mM EGTA were added and the obtained system was left at room temperature for 40 min; • Smooth muscle SI fragment (#CS-MYS05, Cytoskeleton) was diluted with a pre-cooled PM12 buffer containing 1 mM DTT (12 mM Pipes-KOH solution, PH=7.0, containing 2 mM MgCl2) to form a 0.7 mg/mL solution; • ATP (#BSA04-001, Cytoskeleton) was diluted to 5 mM working solution with 15 mM Tris-HCL (PH=7.5); • 2. […] Experimental steps: • adding 10 μL of compound working solution+6 μL of F-actin polymer+4 μL of Smooth muscle Si fragment solution to the compound wells; • adding 10 μL of PM12 buffer containing DMSO+6 μL of F-actin polymer+4 μL of Smooth muscle S1 fragment solution to positive control wells; • adding 10 μL of PM12 buffer containing DMSO+6 μL of F-actin polymer+4 μL of PM12 buffer to negative control wells; • adding […] of 5 mM ATP working solution to all test wells to start the reaction, gently mixing and incubating at 37° C. for 20 min; • after the reaction was completed, taking 6 μLL of reaction liquid, adding 24 μL of PM12 buffer for 5-fold dilution, then detecting the content of the product Pi with a phosphate kit (#BK054, Cytoskeleton); • adding a standard according to the instructions, adding 70 μL of CytoPhos Reagent (#BK054, Cytoskeleton) to all wells and incubating at room temperature for 10 min before detection. • 4. Detection: • the OD value of each well was detected at 650 nm. The standard curve was fitted according to Pi standard concentration and OD value, and the Pi concentration of each test well was obtained. Inhibition (%)=(positive control well−test well)/positive control well*100%.

[2] = Pharmacokinetic experiment in mouse muscle tissue (tibialis anterior / plasma); assay type: in vivo, C57 mice; conditions: male, C57, tibialis anterior muscle / plasma, oral, intragastric 10 mg/kg, read-out: Ratio = Tibialis anterior Conc./Plasma Conc.
Protocol: 1. Experimental animals: Male C57 mice, 22-25 g, 6 mice/compound. Purchased from Chengdu Ddossy Experimental Animals Co., Ltd.
2. Experimental design: On the day of the experiment, C57 mice were randomly grouped according to their body weight. The animals were fasted with water available for 12 to 14 h one day before the administration and were fed 4 h after the administration. Administration was performed as per Table 10.1.

CYP2C9 = biological target: T3, CYP2C9 (Homo sapiens, UniProt P11712); assay: CYP450 enzyme inhibition, human liver microsomes, CYP2C9; assay type: in vitro ADME
T3 construct: incubated with human liver microsomes and test compounds of different concentrations; from tissue; host or cells: human liver microsomes
Protocol: (§1) The purpose of this study was to evaluate the effect of the test compound on the activity of five isoenzymes (CYP1A2, CYP2C9, CYP2C19, CYP2D6 and CYP3A4) of human liver microsomal cytochrome P450 (CYP) by using an in vitro testing system. The specific probe substrates of CYP450 isoenzymes were incubated with human liver microsomes and test compounds of different concentrations, and reduced nicotinamide adenine dinucleotide phosphate (NADPH) was added to initiate the reaction. After the completion of the reaction, the sample was treated and liquid chromatography-tandem mass spectrometry (LC-MS/MS) was used to quantitatively detect metabolites produced by specific substrates, changes in CYP enzyme activity were determined, and IC50 value was calculated to evaluate the inhibitory potential of the test compound on each CYP enzyme subtype.

CYP3A4 = biological target: T4, CYP3A4 (Homo sapiens, UniProt P08684); assay: CYP450 enzyme inhibition, human liver microsomes, CYP3A4; assay type: in vitro ADME
T4 construct: incubated with human liver microsomes and test compounds of different concentrations; from tissue; host or cells: human liver microsomes
Protocol: as §1

CYP2C19 = biological target: T5, CYP2C19 (Homo sapiens, UniProt P33261); assay: CYP450 enzyme inhibition, human liver microsomes, CYP2C19; assay type: in vitro ADME
T5 construct: incubated with human liver microsomes and test compounds of different concentrations; from tissue; host or cells: human liver microsomes
Protocol: as §1

CYP1A2 = biological target: T6, CYP1A2 (Homo sapiens, UniProt P05177); assay: CYP450 enzyme inhibition, human liver microsomes, CYP1A2; assay type: in vitro ADME
T6 construct: incubated with human liver microsomes and test compounds of different concentrations; from tissue; host or cells: human liver microsomes
T6 sequence (P05177 1-516): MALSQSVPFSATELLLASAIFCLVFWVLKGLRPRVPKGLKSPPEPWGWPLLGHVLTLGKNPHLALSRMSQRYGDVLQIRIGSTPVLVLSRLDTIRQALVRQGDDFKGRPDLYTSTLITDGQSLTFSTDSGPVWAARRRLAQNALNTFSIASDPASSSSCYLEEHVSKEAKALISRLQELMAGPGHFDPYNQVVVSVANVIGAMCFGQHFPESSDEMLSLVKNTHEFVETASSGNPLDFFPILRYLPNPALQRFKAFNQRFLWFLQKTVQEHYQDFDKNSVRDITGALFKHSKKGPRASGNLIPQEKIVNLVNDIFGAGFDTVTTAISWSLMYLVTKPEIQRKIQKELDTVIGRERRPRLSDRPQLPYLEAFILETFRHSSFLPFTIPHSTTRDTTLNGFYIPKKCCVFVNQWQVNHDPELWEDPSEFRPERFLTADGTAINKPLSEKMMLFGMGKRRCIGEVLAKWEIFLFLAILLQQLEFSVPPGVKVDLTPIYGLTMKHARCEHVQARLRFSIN
Protocol: as §1

CYP2D6 = biological target: T7, CYP2D6 (Homo sapiens, UniProt P10635); assay: CYP450 enzyme inhibition, human liver microsomes, CYP2D6; assay type: in vitro ADME
T7 construct: incubated with human liver microsomes and test compounds of different concentrations; from tissue; host or cells: human liver microsomes
Protocol: as §1

[3] = inhibition of hydrolysis of ATP, class symbols, read-out: Rabbit skeletal muscle myosin (IC50)
[4] = read-out: IC50 for inhibition of hydrolysis of ATP by rabbit skeletal muscle myosin

T4 sequence (P08684 whole entry): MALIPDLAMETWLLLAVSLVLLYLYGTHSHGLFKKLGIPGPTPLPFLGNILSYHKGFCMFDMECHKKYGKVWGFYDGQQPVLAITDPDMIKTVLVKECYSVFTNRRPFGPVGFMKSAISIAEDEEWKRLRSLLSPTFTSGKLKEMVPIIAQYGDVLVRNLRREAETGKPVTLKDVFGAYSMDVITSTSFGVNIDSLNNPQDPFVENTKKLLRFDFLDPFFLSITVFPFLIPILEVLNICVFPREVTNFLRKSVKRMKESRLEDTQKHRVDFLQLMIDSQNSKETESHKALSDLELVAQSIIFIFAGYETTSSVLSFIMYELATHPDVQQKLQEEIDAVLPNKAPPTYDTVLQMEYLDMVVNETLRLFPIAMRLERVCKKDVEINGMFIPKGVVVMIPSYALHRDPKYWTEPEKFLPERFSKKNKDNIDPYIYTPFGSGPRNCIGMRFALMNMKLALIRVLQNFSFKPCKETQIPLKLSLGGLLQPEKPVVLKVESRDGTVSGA
T7 sequence (P10635 whole entry): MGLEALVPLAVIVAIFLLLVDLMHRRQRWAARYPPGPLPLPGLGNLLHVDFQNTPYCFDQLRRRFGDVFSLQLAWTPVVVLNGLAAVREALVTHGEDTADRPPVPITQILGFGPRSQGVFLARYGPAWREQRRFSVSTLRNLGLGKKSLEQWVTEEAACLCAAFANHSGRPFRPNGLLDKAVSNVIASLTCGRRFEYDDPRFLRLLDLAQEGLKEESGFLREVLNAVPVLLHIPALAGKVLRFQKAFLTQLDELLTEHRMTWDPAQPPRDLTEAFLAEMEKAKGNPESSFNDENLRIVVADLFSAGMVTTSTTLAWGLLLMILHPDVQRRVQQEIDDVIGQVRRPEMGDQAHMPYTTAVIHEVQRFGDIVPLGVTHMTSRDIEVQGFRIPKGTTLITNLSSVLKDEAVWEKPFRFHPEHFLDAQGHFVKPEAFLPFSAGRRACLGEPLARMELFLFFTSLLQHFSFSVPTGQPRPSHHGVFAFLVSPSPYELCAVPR
T3 sequence (P11712 whole entry): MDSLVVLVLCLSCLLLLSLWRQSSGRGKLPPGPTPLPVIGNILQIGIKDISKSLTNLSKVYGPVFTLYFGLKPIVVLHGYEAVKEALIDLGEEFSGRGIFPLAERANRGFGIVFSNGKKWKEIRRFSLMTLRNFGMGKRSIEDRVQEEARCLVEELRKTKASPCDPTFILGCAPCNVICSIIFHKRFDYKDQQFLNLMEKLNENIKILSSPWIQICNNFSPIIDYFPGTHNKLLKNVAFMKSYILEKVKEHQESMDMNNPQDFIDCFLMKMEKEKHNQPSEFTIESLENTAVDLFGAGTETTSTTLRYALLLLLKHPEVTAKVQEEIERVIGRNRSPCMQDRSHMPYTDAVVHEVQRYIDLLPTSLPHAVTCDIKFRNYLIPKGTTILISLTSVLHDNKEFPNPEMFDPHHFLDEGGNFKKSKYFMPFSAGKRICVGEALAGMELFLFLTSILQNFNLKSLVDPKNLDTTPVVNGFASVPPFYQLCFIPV
T2 sequence (P10587 84-789 limits assumed): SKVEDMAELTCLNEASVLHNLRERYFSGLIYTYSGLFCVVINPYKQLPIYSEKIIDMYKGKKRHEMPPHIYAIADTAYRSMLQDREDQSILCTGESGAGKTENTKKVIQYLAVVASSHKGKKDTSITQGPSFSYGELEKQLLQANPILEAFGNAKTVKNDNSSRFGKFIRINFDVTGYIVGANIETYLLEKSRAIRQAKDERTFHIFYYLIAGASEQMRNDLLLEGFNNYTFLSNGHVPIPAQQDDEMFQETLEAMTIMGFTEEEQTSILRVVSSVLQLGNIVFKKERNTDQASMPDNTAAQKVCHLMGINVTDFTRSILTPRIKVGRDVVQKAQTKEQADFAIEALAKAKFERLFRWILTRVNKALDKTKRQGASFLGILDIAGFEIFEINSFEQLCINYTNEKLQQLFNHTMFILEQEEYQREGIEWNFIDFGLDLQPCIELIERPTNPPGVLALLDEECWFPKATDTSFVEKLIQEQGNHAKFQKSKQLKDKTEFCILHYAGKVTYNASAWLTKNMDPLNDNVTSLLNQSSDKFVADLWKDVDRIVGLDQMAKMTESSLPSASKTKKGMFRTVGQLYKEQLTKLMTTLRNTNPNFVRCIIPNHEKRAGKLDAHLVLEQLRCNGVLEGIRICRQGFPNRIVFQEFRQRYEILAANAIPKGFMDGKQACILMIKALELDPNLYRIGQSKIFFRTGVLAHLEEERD
T2 sequence (P02607 whole entry partner, the tested form may be a part): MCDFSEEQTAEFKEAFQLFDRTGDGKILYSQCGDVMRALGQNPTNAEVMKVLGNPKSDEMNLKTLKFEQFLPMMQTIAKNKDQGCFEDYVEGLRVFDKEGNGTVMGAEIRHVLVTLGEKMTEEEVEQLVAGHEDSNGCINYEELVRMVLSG
T1 sequence (Q9BE39 whole entry): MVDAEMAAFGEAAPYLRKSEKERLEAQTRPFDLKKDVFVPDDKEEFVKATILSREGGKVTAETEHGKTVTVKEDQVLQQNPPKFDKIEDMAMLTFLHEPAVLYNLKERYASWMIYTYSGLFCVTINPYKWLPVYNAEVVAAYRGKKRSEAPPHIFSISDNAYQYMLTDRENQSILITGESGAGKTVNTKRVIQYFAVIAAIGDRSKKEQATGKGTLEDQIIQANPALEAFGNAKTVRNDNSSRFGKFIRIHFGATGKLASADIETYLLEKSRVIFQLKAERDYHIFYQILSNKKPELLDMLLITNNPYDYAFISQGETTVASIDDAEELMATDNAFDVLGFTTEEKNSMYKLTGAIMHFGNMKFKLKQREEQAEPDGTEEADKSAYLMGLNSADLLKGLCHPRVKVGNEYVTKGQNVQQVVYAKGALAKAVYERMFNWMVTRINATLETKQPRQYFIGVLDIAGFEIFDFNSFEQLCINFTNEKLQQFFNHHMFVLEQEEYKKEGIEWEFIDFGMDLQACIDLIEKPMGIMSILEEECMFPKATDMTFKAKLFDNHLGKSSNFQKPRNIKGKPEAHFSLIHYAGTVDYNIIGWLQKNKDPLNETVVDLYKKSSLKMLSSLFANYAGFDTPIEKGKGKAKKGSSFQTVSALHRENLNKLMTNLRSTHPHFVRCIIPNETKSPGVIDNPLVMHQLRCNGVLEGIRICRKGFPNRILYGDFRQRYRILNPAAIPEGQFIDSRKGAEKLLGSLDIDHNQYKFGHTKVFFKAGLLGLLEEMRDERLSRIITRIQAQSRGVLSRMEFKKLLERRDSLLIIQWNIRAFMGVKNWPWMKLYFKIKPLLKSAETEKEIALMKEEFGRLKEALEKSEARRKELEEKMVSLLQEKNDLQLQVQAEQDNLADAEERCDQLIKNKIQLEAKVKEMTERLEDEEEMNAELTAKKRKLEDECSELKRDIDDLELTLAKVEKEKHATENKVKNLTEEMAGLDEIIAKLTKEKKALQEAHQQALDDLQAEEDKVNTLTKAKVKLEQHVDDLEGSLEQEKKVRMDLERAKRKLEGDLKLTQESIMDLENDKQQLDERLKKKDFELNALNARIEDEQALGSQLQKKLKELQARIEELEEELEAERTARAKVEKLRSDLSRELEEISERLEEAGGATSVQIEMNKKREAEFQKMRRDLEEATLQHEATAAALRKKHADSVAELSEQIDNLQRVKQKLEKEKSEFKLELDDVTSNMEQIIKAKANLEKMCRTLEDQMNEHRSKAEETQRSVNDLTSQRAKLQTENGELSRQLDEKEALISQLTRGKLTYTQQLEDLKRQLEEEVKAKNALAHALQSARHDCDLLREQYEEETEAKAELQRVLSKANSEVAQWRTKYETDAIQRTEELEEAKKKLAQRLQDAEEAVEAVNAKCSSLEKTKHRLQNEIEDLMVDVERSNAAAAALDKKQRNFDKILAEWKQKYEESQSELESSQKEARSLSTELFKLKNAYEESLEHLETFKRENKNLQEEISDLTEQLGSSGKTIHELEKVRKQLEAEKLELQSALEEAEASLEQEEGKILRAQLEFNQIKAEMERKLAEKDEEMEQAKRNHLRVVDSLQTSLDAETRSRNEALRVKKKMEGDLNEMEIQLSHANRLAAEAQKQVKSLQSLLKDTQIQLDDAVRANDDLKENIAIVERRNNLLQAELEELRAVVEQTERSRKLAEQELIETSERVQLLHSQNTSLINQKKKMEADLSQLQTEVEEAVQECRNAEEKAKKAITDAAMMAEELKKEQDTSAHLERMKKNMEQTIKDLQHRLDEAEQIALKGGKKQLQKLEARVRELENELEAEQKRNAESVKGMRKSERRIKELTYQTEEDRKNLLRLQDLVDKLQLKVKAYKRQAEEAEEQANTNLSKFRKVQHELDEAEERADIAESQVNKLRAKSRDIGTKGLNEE
T1 sequence (P85100 whole entry partner): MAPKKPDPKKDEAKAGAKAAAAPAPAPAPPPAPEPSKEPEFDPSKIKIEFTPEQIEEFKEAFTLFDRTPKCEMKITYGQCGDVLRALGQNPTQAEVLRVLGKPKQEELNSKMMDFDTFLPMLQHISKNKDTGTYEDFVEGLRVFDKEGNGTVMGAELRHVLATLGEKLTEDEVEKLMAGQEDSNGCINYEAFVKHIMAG
T1 sequence (Q3SZE5 whole entry partner): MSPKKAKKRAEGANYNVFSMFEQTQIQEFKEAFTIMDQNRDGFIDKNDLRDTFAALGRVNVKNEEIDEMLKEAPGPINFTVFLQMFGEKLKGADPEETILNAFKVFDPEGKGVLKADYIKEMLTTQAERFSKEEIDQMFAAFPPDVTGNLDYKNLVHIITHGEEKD

Row | SMILES | IC50 [1, 3] | IC50 [1, 4] | inhibition at 100 µM (cardiac myosin SII) | inhibition at 100 µM (smooth muscle myosin S1) | Kp at 6 h [2] | Kp at 24 h [2] | IC50 (CYP2C9) | IC50 (CYP3A4) | IC50 (CYP2C19) | IC50 (CYP1A2) | IC50 (CYP2D6)
1 | CC(F)(F)COc1ncc(-c2ccc(=O)n(Cc3ccc4c(c3)C(=O)CC4)n2)cn1 [Compound 139] | < 2.5 µM | 0.6 µM | 6% | 6% | 63.5 | 85.5 | – | – | – | – | –
2 | O=C1CCc2c(F)cc(Cn3nc(-c4cnc(OCC(F)(F)F)nc4)ccc3=O)cc21 [Compound 153] | < 2.5 µM | 0.5 µM | – | -12% | 73.3 | 96.7 | > 30 µM | > 30 µM | > 30 µM | > 30 µM | > 30 µM
3 | O=C1CCc2c(Cl)cc(Cn3nc(-c4cnc(O[C@H]5CCOC5)nc4)ccc3=O)cc21 [Compound 172] | < 2.5 µM | 1 µM | – | – | 67 | 129 | > 30 µM | > 30 µM | > 30 µM | > 30 µM | > 30 µM
4 | O=C1CCc2c1cc(Cn1nc(-c3cnc(OCC(F)(F)F)nc3)ccc1=O)cc2C(F)F [Compound 176] | < 2.5 µM | – | – | – | – | – | > 30 µM | > 30 µM | > 30 µM | > 30 µM | > 30 µM
5 | O=c1ccc(-c2cnc(O[C@H]3CCOC3)nc2)nn1Cc1ccc2c(c1)CC2 [Compound 106] | < 2.5 µM | 0.2 µM | – | – | – | – | > 30 µM | > 30 µM | > 30 µM | > 30 µM | > 30 µM
6 | O=C1Cc2cc(Cn3nc(-c4cnc(OCC(F)(F)F)nc4)ccc3=O)ccc21 [Compound 72] | < 2.5 µM | 0.56 µM | – | 23.6% | – | – | > 30 µM | > 30 µM | > 30 µM | > 30 µM | > 30 µM
7 | O=C1CCc2c(F)cc(Cn3nc(-c4cnc(O[C@@H]5CCOC5)nc4)ccc3=O)cc21 [Compound 163] | < 2.5 µM | – | – | 14% | – | – | > 30 µM | > 30 µM | > 30 µM | > 30 µM | > 30 µM
8 | O=C1CCc2c(Cl)cc(Cn3nc(-c4cnc(C5CC5)nc4)ccc3=O)cc21 [Compound 170] | < 2.5 µM | 0.9 µM | – | – | – | – | > 30 µM | > 30 µM | > 30 µM | > 30 µM | > 30 µM
9 | O=c1ccc(-c2cnc(Oc3ccnc(C(F)(F)F)c3)nc2)nn1Cc1ccc2c(c1)CCC2 [Compound 133] | < 2.5 µM | – | -4% | 8% | – | – | – | – | – | – | –
10 | O=c1ccc(-c2cnc(OCC(F)(F)F)nc2)nn1Cc1ccc2c(c1)C(F)(F)CC2 [Compound 93] | < 2.5 µM | 0.7 µM | -16% | -14% | – | – | – | – | – | – | –
11 | Cc1cc(Cn2nc(-c3cnc(OCC(F)(F)F)nc3)ccc2=O)cc2c1CCC2=O [Compound 169] | < 2.5 µM | 0.8 µM | – | – | – | – | > 30 µM | > 30 µM | > 30 µM | > 30 µM | > 30 µM
12 | O=C1CCc2c(Cl)cc(Cn3nc(-c4cnc(O[C@@H]5CCOC5)nc4)ccc3=O)cc21 [Compound 171] | < 2.5 µM | 0.9 µM | – | – | 90.1 | 161 | > 30 µM | > 30 µM | > 30 µM | > 30 µM | > 30 µM
